In US4256836A, “Addition compound of dipeptide derivative and amino acid derivative” (Toyo Soda Manufacturing Co. Ltd., priority 1977, dated 1981):
Where a SMILES comes first, the peptide text is derived from it. The star is where a group is joined. Cbz = O=C(OCc1ccccc1)*

Assays:
[1] = relative to sugar; cited from earlier work
[2] = solubility in water or acidic aqueous solution; assay type: physicochemical; conditions: at 25° C.

Row | solubility in water [2] | SMILES | sweetness [1] | solubility in diluted hydrochloric acid ([2]; diluted hydrochloric acid (10^-2 M))
1 |  | COC(=O)[C@H](Cc1ccccc1)NC(=O)[C@@H](N)CC(=O)O [α-L-Aspartyl-L-phenylalanine methyl ester] (H-Asp-Phe-OMe) | about 200 times of that of sugar | 
2 | 0.028 g/100 g water | COC(=O)[C@H](Cc1ccccc1)NC(=O)[C@H](CC(=O)O)NC(=O)OCc1ccccc1 (Cbz-Asp-Phe-OMe) |  | 0.017 g/100 g diluted hydrochloric acid (10^-2 M)
